The values below come from patent publication US11584710B2, “Compounds for treating infections” (HORITZONTS TECNOLOGICS HUNGARY KORLÁTOLT FELELOSSÉGU …, priority 2017, dated 2023).

Format in all cases: cell-based
One assay concerns A. niger. Description: Antifungal disk diffusion susceptibility test (CLSI M44). The following applies: Aspergillus niger, A. niger; for zone of inhibition at 150 µg/disc: 150 μg/disc; for zone of inhibition at 500 µg/disc: 500 μg/disc. The protocol:
(§1) Filamentous fungi and yeasts strains, from clinical origin, were supplied by Microbiology Service from The Princess Hospital, Madrid. They are detailed in Table IX.
(§2) Filamentous fungi and yeast cells suspensions in distilled water was prepared from a culture of 24-48 h, depending on species, in Sabouraud agar. Each suspension was adjusted to a fixed size inoculum of 1-5×10^8 CFU/ml with a spectrophotometer (Ferraro, MJ National Committee for Clinical Laboratory Standards. 2000).
(§3) Antifungal susceptibility tests were developed following the standardized methodology detailed in document CLSI: M44-4: Method for Antifungal Disk diffusion susceptibility testing of yeasts consisting of disk diffusion on agar Muller-Hinton (supplemented with 2% glucose).
For orientation: Agar diffusion results depend on both activity and mobility in agar.

The subject of another assay is C. guillermondii. Described as above. The following applies: C. guillermondii; for zone of inhibition at 150 µg/disc: 150 μg/disc; for zone of inhibition at 500 µg/disc: 500 μg/disc. How it is done: as §1, §2, §3
The next assay has as its system A. terreus. The description is as above. The note with it: Aspergillus terreus, A. terreus; for zone of inhibition at 150 µg/disc: 150 μg/disc; for zone of inhibition at 500 µg/disc: 500 μg/disc. The protocol: as §1, §2, §3
The subject of another assay is S. cerevisiae. The assay is described as above. The note with it: Saccharomyces cerevisiae, S. cerevisiae; for zone of inhibition at 150 µg/disc: 150 μg/disc; for zone of inhibition at 500 µg/disc: 500 μg/disc. The protocol:
as §1, §2, §3

Another assay deals with A. fumigatus. Described as above. The following applies: Aspergillus fumigatus, A. fumigatus; for zone of inhibition at 150 µg/disc: 150 μg/disc; for zone of inhibition at 500 µg/disc: 500 μg/disc. The protocol: as §1, §2, §3
Another assay concerns C. tropicalis. Described as above. The note with it: Candida tropicalis, C. tropicalis; for zone of inhibition at 150 µg/disc: 150 μg/disc; for zone of inhibition at 500 µg/disc: 500 μg/disc. The protocol:
as §1, §2, §3

The next assay deals with C. albicans. The assay is described as above. The note with it: Candida albicans, C. albicans; for zone of inhibition at 150 µg/disc: 150 μg/disc; for zone of inhibition at 500 µg/disc: 500 μg/disc. How it is done:
as §1, §2, §3

Another assay concerns C. lusitaniae. The assay is described as above. The following applies: Clavispora lusitaniae, C. lusitaniae; for zone of inhibition at 150 µg/disc: 150 μg/disc; for zone of inhibition at 500 µg/disc: 500 μg/disc. The protocol:
as §1, §2, §3

A further assay concerns A. flavus. The assay is described as above. The note with it: Aspergillus flavus, A. flavus; for zone of inhibition at 150 µg/disc: 150 μg/disc; for zone of inhibition at 500 µg/disc: 500 μg/disc. How it is done:
as §1, §2, §3

The test system of another assay is C. parapsilosis. Described as above. The following applies: Lodderomyces parapsilosis, C. parapsilosis; for zone of inhibition at 150 µg/disc: 150 μg/disc; for zone of inhibition at 500 µg/disc: 500 μg/disc. The protocol:
as §1, §2, §3

In another assay the test system is T. pulmonis. Description: Kirby-Bauer disk diffusion susceptibility test. The following applies: 300 μg/disc. The protocol: (§4) Bacterial strains, from clinical origin, were supplied by the National Center for Microbiology, Institute of Health Carlos III (Majadahonda, Madrid). They are detailed in Table 1.
(§5) Bacterial cells suspension in sterile saline was prepared from a culture of 24-72 h, depending on bacterial species, in Mueller-Hinton Agar with 5% sheep blood. Each suspension was adjusted to a fixed size inoculum of 1-5×10^8 CFU/ml with a spectrophotometer (Ferraro, MJ National Committee for Clinical Laboratory Standards. 2000).
(§6) Kirby-Bauer disk diffusion susceptibility test protocol was utilized to determine the sensitivity or resistance of pathogenic bacteria against the compounds and others antibiotics. The absence of growth around the disks is an indirect measure of the ability of this compound to inhibit an organism (Kirby, W., et al., Antibiotics Annu. 1956-1957:892). After 18 to 72 hours of incubation at 37° C., with or without CO2, under aerobic or anaerobic conditions, depending on the bacterial species, halo of growth inhibition were obtained and evaluated.
(§7) Interpretation of susceptibility and resistance was based on the presence or absence of a zone of inhibition surrounding the disk. Kirby-Bauer disk diffusion susceptibility test is a common method which uses antibiotic-impregnated wafers to test whether bacteria are affected by antibiotics. The size of the zone of inhibition depends on how effective the antibiotic is at stopping the growth of the bacterium. A stronger antibiotic will create a larger zone, because a lower concentration of the antibiotic is enough to stop growth.
(§8) All compounds were tested at 300 μg/disc.

The subject of the next assay is N. cyriacigeorgica. In words: Kirby-Bauer disk diffusion susceptibility test. The following applies: 300 μg/disc. The protocol: as §4, §5, §6, §7, §8
Another assay concerns N. carnea. Description: Kirby-Bauer disk diffusion susceptibility test. The note with it: 300 μg/disc. How it is done:
as §4, §5, §6, §7, §8

The next assay has as its system S. pneumoniae. Description: Kirby-Bauer disk diffusion susceptibility test. The following applies: 300 μg/disc. How it is done: as §4, §5, §6, §7, §8
For a further assay, the system named is A. baumannii. In words: Kirby-Bauer disk diffusion susceptibility test. The following applies: 300 μg/disc. The protocol:
as §4, §5, §6, §7, §8

On to `COc1cccc(NNC(=O)C(=O)NN)c1` [MSG-227], for which the zone of inhibition (commonly the size of the clear area around the sample on an inoculated plate) at 150 µg/disc in the assay with A. niger is 32 mm; in the assay with C. guillermondii, more than 40 mm; with A. terreus it was more than 40 mm; with S. cerevisiae, 20 mm; in the assay with A. fumigatus it was 11 mm; in the assay on C. tropicalis it was 26 mm. Besides, the zone of inhibition at 150 µg/disc was 26 mm with C. albicans, more than 40 mm with C. lusitaniae, 25 mm in the assay with A. flavus and 31 mm with C. parapsilosis. Also, the zone of inhibition at 500 µg/disc in the assay on A. niger was more than 40 mm; in the assay on C. guillermondii, more than 40 mm; with A. terreus, more than 40 mm; in the assay on S. cerevisiae, 25 mm; in the assay on A. fumigatus, more than 40 mm; in the assay on C. tropicalis, more than 40 mm. Further, the zone of inhibition at 500 µg/disc in the assay with C. albicans, in the assay on C. lusitaniae, in the assay on A. flavus and with C. parapsilosis was more than 40 mm throughout.

As for `NNC(=O)C(=O)NNc1ccc(Cl)cc1` [MSG-214], the zone of inhibition at 150 µg/disc in the assay on A. niger is 10 mm; in the assay on C. guillermondii, 15 mm; in the assay on A. terreus, less than 10 mm; with S. cerevisiae, 15 mm; in the assay with A. fumigatus, less than 10 mm; in the assay on C. tropicalis, 34 mm. For the same compound, the zone of inhibition at 150 µg/disc in the assay with C. albicans was 40 mm; with C. lusitaniae, 42 mm; in the assay with A. flavus, less than 10 mm; with C. parapsilosis, 15 mm. Besides, the zone of inhibition at 500 µg/disc with A. niger is more than 40 mm; in the assay with C. guillermondii, more than 40 mm; in the assay on A. terreus, 17 mm; in the assay with S. cerevisiae, 32 mm; in the assay with A. fumigatus it was 16 mm; in the assay with C. tropicalis it was more than 40 mm. The zone of inhibition at 500 µg/disc was more than 40 mm in the assay on C. albicans, more than 40 mm in the assay with C. lusitaniae, less than 10 mm in the assay with A. flavus and more than 40 mm with C. parapsilosis. The “Activity detected (mm)” value amounted to 30 mm in the assay with T. pulmonis; 25 mm with N. cyriacigeorgica; 14 mm with N. carnea; 11 mm in the assay with S. pneumoniae; 12 mm with A. baumannii.

In the case of `Cc1ccc(NNC(=O)C(=O)NN)cc1` [MSG-218], the zone of inhibition at 150 µg/disc with A. niger is 22 mm; with C. guillermondii it was 22 mm; with A. terreus, less than 10 mm; in the assay on S. cerevisiae, 24 mm; with A. fumigatus, less than 10 mm; in the assay on C. tropicalis, 10 mm. Further, the zone of inhibition at 150 µg/disc is 24 mm in the assay with C. albicans, 22 mm in the assay on C. lusitaniae, less than 10 mm in the assay on A. flavus and 25 mm with C. parapsilosis. Moreover, the zone of inhibition at 500 µg/disc was determined as 30 mm in the assay on A. niger; 40 mm in the assay with C. guillermondii; 10 mm in the assay on A. terreus; 34 mm in the assay on S. cerevisiae; 10 mm in the assay on A. fumigatus; 40 mm with C. tropicalis. Also, the zone of inhibition at 500 µg/disc with C. albicans was more than 40 mm; with C. lusitaniae it was 46 mm; in the assay with A. flavus it was less than 10 mm; with C. parapsilosis, 36 mm. Moreover, the “Activity detected (mm)” value in the assay on T. pulmonis was found to be 33 mm; in the assay with A. baumannii, 15 mm.

On to `COc1ccc(NNC(=O)C(=O)NN)cc1` [MSG-210], for which the zone of inhibition at 150 µg/disc was 27 mm with A. niger; 32 mm in the assay on C. guillermondii; 19 mm in the assay with A. terreus; 28 mm with S. cerevisiae; 10 mm with A. fumigatus; 34 mm in the assay with C. tropicalis. Moreover, the zone of inhibition at 150 µg/disc with C. albicans stood at 32 mm; in the assay on C. lusitaniae it was 39 mm; with A. flavus, 10 mm; in the assay with C. parapsilosis, 28 mm. In addition, the zone of inhibition at 500 µg/disc in the assay on A. niger amounted to 40 mm; with C. guillermondii, 35 mm; with A. terreus it was 22 mm; in the assay on S. cerevisiae it was 30 mm; in the assay on A. fumigatus, 16 mm; in the assay with C. tropicalis, 36 mm. Also, the zone of inhibition at 500 µg/disc in the assay on C. albicans is more than 40 mm; with C. lusitaniae, more than 40 mm; with A. flavus, 9 mm; with C. parapsilosis, 32 mm. For the same compound, the “Activity detected (mm)” value is on record as 20 mm with T. pulmonis, 15 mm with N. cyriacigeorgica, 11 mm in the assay with N. carnea and 18 mm in the assay with A. baumannii.

For `NNC(=O)C(=O)NNc1ccc(F)cc1` [MSG-193], the zone of inhibition at 150 µg/disc was 15 mm in the assay on A. niger; 20 mm in the assay with C. guillermondii; 12 mm in the assay with A. terreus; 22 mm in the assay with S. cerevisiae; 20 mm in the assay on A. fumigatus; 30 mm with C. tropicalis. Further, the zone of inhibition at 150 µg/disc with C. albicans stood at 20 mm; with C. lusitaniae, 15 mm; in the assay on A. flavus it was 15 mm; in the assay on C. parapsilosis, 18 mm. For the same compound, the zone of inhibition at 500 µg/disc in the assay with A. niger was more than 40 mm; in the assay with C. guillermondii it was 40 mm; with A. terreus, 32 mm; in the assay on S. cerevisiae it was 40 mm; in the assay with A. fumigatus, more than 40 mm; in the assay with C. tropicalis, more than 40 mm. The zone of inhibition at 500 µg/disc in the assay on C. albicans, in the assay with C. lusitaniae, in the assay on A. flavus and with C. parapsilosis was more than 40 mm each time.

Regarding `NNC(=O)CC(=O)NNc1ccccc1` [MSG-187], the zone of inhibition at 150 µg/disc in the assay with A. niger, in the assay on C. guillermondii, with A. terreus, in the assay with S. cerevisiae, with A. fumigatus and in the assay on C. tropicalis was less than 10 mm each time. The zone of inhibition at 150 µg/disc in the assay on C. albicans, with C. lusitaniae, in the assay on A. flavus and in the assay with C. parapsilosis was less than 10 mm throughout. The zone of inhibition at 500 µg/disc was 40 mm with A. niger; 22 mm in the assay with C. guillermondii; less than 10 mm with A. terreus; less than 10 mm in the assay on S. cerevisiae; 32 mm in the assay with A. fumigatus; 18 mm in the assay with C. tropicalis. Moreover, the zone of inhibition at 500 µg/disc in the assay on C. albicans amounted to 22 mm; with C. lusitaniae it was 20 mm; with A. flavus it was 36 mm; in the assay on C. parapsilosis it was 17 mm.
